From patent publication CN104630230A, “一组特异识别大田软海绵酸的核酸适配体” (priority 2015, dated 2015)
Read-outs that look alike come from different tables or passages of the source.

Legend:
Experiment in all cases: Affinity analysis (GO separation, FAM fluorescence, saturation binding)
[1] = biological target: 5'-FAM-labelled ssDNA OA-17 (80 nt); conditions: 1 μM OA, 5-200 nM ssDNA, 2 h in the dark, ex 490 nm / em 520 nm
[2] = biological target: 5'-FAM-labelled ssDNA OA-22 (80 nt); conditions: 1 μM OA, 5-200 nM ssDNA, 2 h in the dark, ex 490 nm / em 520 nm
[3] = biological target: 5'-FAM-labelled single-stranded DNA aptamer OA-27 (80 nt) (核酸适配体 OA-27)
[4] = biological target: 5'-FAM-labelled single-stranded DNA aptamer OA27-1 (truncated OA-27, random region 40 nt) (核酸适配体 OA27-1); conditions: OA27-1, saturation binding curve (Fig. 4B)
[5] = biological target: 5'-FAM-labelled ssDNA OA-08 (80 nt); conditions: 1 μM OA, 5-200 nM ssDNA, 2 h in the dark, ex 490 nm / em 520 nm

C=C1[C@@H](O)[C@@H]2O[C@]3(CC[C@H](/C=C/[C@@H](C)[C@@H]4CC(C)=C[C@@]5(O[C@H](C[C@@](C)(O)C(=O)O)CC[C@H]5O)O4)O3)CC[C@H]2O[C@@H]1[C@@H](O)C[C@H](C)[C@H]1O[C@@]2(CCCCO2)CC[C@H]1C [OA, Okadaic acid]
Kd [1]: < 100 nM
Kd [2]: < 100 nM
Kd ([3]; 1 μM OA, 5-200 nM ssDNA, 2 h in the dark, GO separation, ex 490 nm / em 520 nm, read-out: Kd): < 100 nM
Kd ([3]; in words, OA-27 compared with the other ssDNA sequences of the 8 tested (Fig. 4A)): 其Kd值最小
Kd [4]: 39 nM
Kd [5]: < 100 nM
